From publication PMC12691689, “Bacteria export alarmone synthetases that produce (p)ppApp and (p)ppGpp” (mBio, 2025)
Each block holds one compound with its values, some of them ahead of it.

Columns and labels:
Assay type in all cases: biochemical
[1] = target: T1, SaEAS (SaEAS-FLAG, secreted SaEASΔSP-FLAG) (Streptomyces albidoflavus, UniProt A0AA37FDV0); assay: anion-exchange chromatography, competition of PPi acceptors, Km from calculated acceptor-site occupancy; conditions: 5 mM ATP, 5 mM free MgCl2, 0.1 mM MnCl2, pH 7.5, 37 °C
T1 construct: gene ScoT_12220; full-length gene with FLAG tag overexpressed (ermE* promoter) in S. albidoflavus SM254 delta-SaEAS; signal peptide cleaved on secretion; diluted spent medium used without purification
T1 sequence (A0AA37FDV0 entry or part of it, stated change not applied): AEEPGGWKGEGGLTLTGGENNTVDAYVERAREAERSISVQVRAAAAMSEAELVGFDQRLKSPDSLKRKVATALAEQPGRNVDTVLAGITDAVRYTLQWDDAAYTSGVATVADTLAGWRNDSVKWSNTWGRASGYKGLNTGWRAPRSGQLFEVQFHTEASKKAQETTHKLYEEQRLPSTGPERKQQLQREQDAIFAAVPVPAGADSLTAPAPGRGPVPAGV
Excerpt: anion-exchange chromatography, competition of PPi acceptors, Km from calculated acceptor-site occupancy on SaEAS (SaEAS-FLAG, secreted SaEASΔSP-FLAG) | we then calculated the acceptor-site occupancy and Km for the non-ATP substrate

[2] = target: T1, SaEAS (SaEAS-FLAG, secreted SaEASΔSP-FLAG); assay: anion-exchange chromatography, initial velocity of pppGpp synthesis; conditions: ATP as PPi donor; 5 mM GTP acceptor, 0.03-1 mM ATP, 5 mM free MgCl2, 0.1 mM MnCl2, pH 7.5, 37 °C, PK/PEP
[3] = target: T1, SaEAS (SaEAS-FLAG, secreted SaEASΔSP-FLAG); assay: anion-exchange chromatography, initial velocity of pppApp synthesis; conditions: ATP as PPi acceptor (second site); 0.5-10 mM ATP as donor and acceptor, 5 mM free MgCl2, 0.1 mM MnCl2, pH 7.5, 37 °C
Excerpt: anion-exchange chromatography, initial velocity of pppApp synthesis on SaEAS (SaEAS-FLAG, secreted SaEASΔSP-FLAG) | the Michaelis-Menten relationship provides the Km for ATP as a PPi acceptor

[4] = target: T2, VpEAS (Vibrio parahaemolyticus, UniProt Q87Q55); assay: anion-exchange chromatography of lysate reaction, pppGpp-2S formation; conditions: 5 mM ATPγS, 1 mM GTPγS, 10 mM MgCl2, 0.1 mM MnCl2, pH 7.5, 37 °C, 5 min
T2 construct: gene VP1295; recombinant from pET29b in E. coli BL21(DE3), cleared lysate
T2 sequence (Q87Q55 entry or part of it): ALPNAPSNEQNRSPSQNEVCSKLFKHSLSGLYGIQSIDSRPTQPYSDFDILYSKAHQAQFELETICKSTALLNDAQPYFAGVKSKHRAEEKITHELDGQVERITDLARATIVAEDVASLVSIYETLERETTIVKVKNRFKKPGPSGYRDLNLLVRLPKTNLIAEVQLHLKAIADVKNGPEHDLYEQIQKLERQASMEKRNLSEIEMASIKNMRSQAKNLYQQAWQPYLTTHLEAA

[5] = target: T1, SaEAS (SaEAS-FLAG, secreted SaEASΔSP-FLAG); assay: anion-exchange chromatography, competition of PPi acceptors, Km derived from Vmax and Vmax/Km; conditions: PPi acceptor; ATP donor, 5 mM free MgCl2, 0.1 mM MnCl2, pH 7.5, 37 °C; read-out: Km, acceptor(GTP)
Excerpt: anion-exchange chromatography, competition of PPi acceptors, Km derived from Vmax and Vmax/Km on SaEAS (SaEAS-FLAG, secreted SaEASΔSP-FLAG) | We next used Vmax(pppGpp) to calculate Km, acceptor(GTP).

Km ([1]; 5 mM ADP): 930 ± 40 µM
SMILES: Nc1ncnc2c1ncn2[C@@H]1O[C@H](COP(=O)(O)OP(=O)(O)O)[C@@H](O)[C@H]1O [ADP]

Km ([1]; 5 mM AMP): 2200 ± 200 µM
SMILES: Nc1ncnc2c1ncn2[C@@H]1O[C@H](COP(=O)(O)O)[C@@H](O)[C@H]1O [AMP]

Km [2]: 82 µM
Km, aceptor(ATP) [3]: 1400 µM
SMILES: Nc1ncnc2c1ncn2[C@@H]1O[C@H](COP(=O)(O)OP(=O)(O)OP(=O)(O)O)[C@@H](O)[C@H]1O [ATP]

Continued, compound first:

SMILES: Nc1ncnc2c1ncn2[C@@H]1O[C@H](COP(=O)(O)OP(=O)(O)OP(O)(O)=S)[C@@H](O)[C@H]1O [ATPγS]
anion-exchange chromatography of lysate reaction, pppGpp-2S formation ([4]; PPi donor): Reactions were carried out using the non-hydrolyzable thiophosphates ATPγS and GTPγS

SMILES: Nc1nc2c(ncn2[C@@H]2O[C@H](COP(=O)(O)O)[C@@H](O)[C@H]2O)c(=O)[nH]1 [GMP]
Km ([1]; 0.5 mM GMP): 64 ± 3 µM

SMILES: Nc1nc2c(ncn2[C@@H]2O[C@H](COP(=O)(O)OP(=O)(O)OP(=O)(O)O)[C@@H](O)[C@H]2O)c(=O)[nH]1 [GTP]
Km [5]: 50 ± 4 µM

SMILES: Nc1nc2c(ncn2[C@@H]2O[C@H](COP(=O)(O)OP(=O)(O)OP(O)(O)=S)[C@@H](O)[C@H]2O)c(=O)[nH]1 [GTPγS]
anion-exchange chromatography of lysate reaction, pppGpp-2S formation ([4]; PPi acceptor): VpEAS specifically uses GTPγS as an acceptor nucleotide to produce pppGpp-2S
